Tests used:
[1] = system: patients with high-risk smoldering multiple myeloma (SMM); assay: Phase II trial (E-PRISM): safety and tolerability, adverse events graded by CTCAE v4.0; settings: in vivo
Procedure: In the treatment schema a cycle is defined as 28 consecutive days. In cycles 1 and 2, 10 mg/kg of intravenous push Elotuzumab were administered on days 1, 8, 15, and 22. In cycles 3-4, it was administered on days 1 and 15. A 25 mg dose of oral Lenalidomide was administered on days 1-21 of each cycle. In Arm A, 40 mg of oral Dexamethasone were administered on days 1, 8, 15, and 22 in cycles 1 and 2 and on days 1, 8, and 15 in cycles 3-8. Patients on maintenance treatment (cycles 9-24) were administered 20 mg/kg of intravenous push Elotuzumab on day 1 and 15 mg oral Lenalidomide on days 1-21. All patients received thromboprophylaxis.
Toxicities were monitored throughout the study and for up to 30 days after the last dose of the study drug. Adverse events (AEs) were graded according to the National Cancer Institute Common Terminology Criteria for Adverse Events (CTCAE; version 4.0; Bethesda, MD). In addition, neuropathy symptoms were assessed using the FACT/GOG-Neuropathy questionnaire (Version 4.0). Efficacy was measured using the IWMG criteria for response^31.
Forty-nine patients experienced at least one toxicity while on study with worst grades of 1-mild (n=0), 2-moderate (n=11/51, 22%), and 3-severe (n=29/51, 57%), 4-life threatening (n=7/51, 14%), and 5-fatal (n=2/51, 4%). […]

[2] = system: immune system in patients with SMM; settings: trial of Lenalidomide and Dexamethasone; cited from earlier work

SMILES: C[C@@H]1C[C@H]2[C@@H]3CCC4=CC(=O)C=C[C@]4(C)[C@@]3(F)[C@@H](O)C[C@]2(C)[C@@]1(O)C(=O)CO [Dexamethasone]
- Effect of Dexamethasone dose on type or frequency of treatment-related toxicities [1]: no effect
- Effect of once weekly high-dose Dexamethasone on the immune system [2]: does not have a detrimental effect
